In US20260182575A1, “MOLECULES HAVING PESTICIDAL UTILITY AND INTERMEDIATES AND PROCESSES RELATED THERETO” (CORTEVA AGRISCIENCE LLC, priority 2022, published 2026):

Assays:
Assay type in all cases: in vivo
[1] = tested on: Corn Earworm (Helicoverpa zea, HELIZE, CEW); experiment: Bioassay 4: corn earworm, artificial diet, 128-cell tray; conditions: AI alone
Protocol: (§1) Stock solutions were prepared with F1 as well as for each of the active ingredients individually. Test solutions were prepared from the stock solutions. Test solutions were prepared containing F1, the individual active ingredients, and mixtures of F1 with each of the active ingredients. The test solution for F1 was prepared by adding 500 μL of the stock solution to a 25 mL glass vial, then adding 500 μL of a 9:1 mixture of acetone:water. The individual active ingredients were prepared by adding 500 μL of stock solution to a 25 mL glass vial, then adding 500 μL of a 9:1 mixture of acetone:water. The test solutions containing mixtures of F1, and the individual active ingredients were prepared by adding 500 μL of the active ingredient stock solution to a 25 mL glass vial, followed by 500 μL of the F1 stock solution, creating a test solution containing 0.04% (w/v) of F1 and 0.4% (w/v) of the active ingredient. Each test solution was serially diluted to create desired doses of test solutions (F1 at 0.04% (w/v), 0.004% (w/v), 0.0004% (w/v), 0.00004% (w/v), 0.000004% (w/v), and 0.0000004% (w/v) and active ingredients at 0.4% (w/v), 0.04% (w/v), 0.004% (w/v), 0.0004% (w/v), 0.00004% (w/v), and 0.000004% (w/v)).
(§2) The test solutions were tested against CEW, FAW, and SBL using the following procedure: an artificial lepidopteran diet (Multispecies Lepidopteran Diet, Southland Products) was distributed in 128-cell bioassay trays (Frontier Agricultural Sciences™). 50 μL of test solution was pipetted into a cell in the bioassay tray. (The test solution doses of 0.04% (w/v), 0.004% (w/v), 0.0004% (w/v), 0.00004% (w/v), 0.000004% (w/v), and 0.0000004% (w/v) translated to concentrations of 5, 0.5, 0.05, 0.005, 0.0005, and 0.00005 μg/cm^2 on the diet, respectively.) A reference treatment (solvent check) was treated with the diluent only. Each treatment was replicated 8 times for each species. A 2nd instar CEW, FAW, or SBL larva was placed on top of the diet in each cell and was contained with a clear perforated adhesive lid. Test trays were held at approximately 26° C. and ambient relative humidity (RH) prior to grading.
(§3) After 5 days, the number of live larvae were recorded from each cell and percent control was measured using Abbott's correction formula (W. S. Abbott, J. Econ. Entomol. 18 (1925), pp. 265-267) as follows:
(§4) where X=No. of live larvae on solvent check and Y=No. of live larvae on treated diet. In Table B4 the “Expected % Control” was calculated using the method described in Colby S. R., Weeds, 1967, 15, 20-22. Bioassay 5: Neotropical Brown Stink Bug (Euschistus heros, EUSCHE, “BSB”).

[2] = tested on: Soybean Looper (Chrysodeixis includens, PSEPIN, SBL); experiment: Bioassay 4: soybean looper, artificial diet, 128-cell tray; conditions: AI alone
Protocol: as §1, §2, §3, §4

[3] = tested on: Fall Armyworm (Spodoptera frugiperda, LAPHFR, FAW); experiment: Bioassay 4: fall armyworm, artificial diet, 128-cell tray; conditions: AI alone
Protocol: as §1, §2, §3, §4

[4] = tested on: Western Flower Thrips (Frankliniella occidentalis, FRANOC, WFT); experiment: Bioassay 3: western flower thrips, cotton leaf disc dip; conditions: 3 days
Protocol: Stock solutions of F1 and various active ingredients were prepared initially at a concentration of 0.1 mg/mL using acetone as a diluent. Stock solutions were prepared with F1 as well as for each of the active ingredients individually. Test solutions were prepared from the stock solutions. Test solutions were prepared containing F1, the individual active ingredients, and mixtures of F1 with each of the active ingredients. The test solutions for F1 and the individual active ingredients were prepared by adding 500 μL of stock solution to a 25 mL glass vial, then adding 500 μL of acetone, followed by the addition of 9 mL water with 0.025% Tween® 20 to create a 0.0005% (w/v) solution. The test solutions containing mixtures of F1, and the individual active ingredients were prepared by adding 500 μL of the active ingredient stock solution to a 25 mL glass vial, followed by 500 μL of the F1 stock solution, then by the addition of 9 mL water with 0.025% Tween® 20 to create a test solution containing 0.0005% (w/v) F1 and 0.0005% (w/v) of the active ingredient. Each test solution was serially diluted to create desired doses of test solutions (0.0005% (w/v), 0.000125% (w/v), 0.00003125% (w/v), 0.0000078% (w/v), and 0.00000195% (w/v)).
The test solutions were tested against WFT using the following procedure: Leaf discs (2.7 cm in diameter) were cut from the true leaves of cotton plants. Leaf discs were dipped into the test solutions and shaken to ensure complete coverage of the leaf disc and then placed in Millipore® PetriSlides containing a filter paper disc. Treated leaf discs were air dried for approximately 1 hour. Each leaf disc was infested with 5 WFT (9-10-day old nymphs) by placement on each leaf disc, and the PetriSlides were capped to prevent escape. Each treatment was replicated three times and the test treatments were held at approximately 26° C. and ambient relative humidity (RH) prior to grading. Reference discs (solvent check) were treated with the diluent only. Evaluation was conducted by counting the number of live WFT under magnification 3 days after treatment. Percent control was measured using Abbott's correction formula (W. S. Abbott, J. Econ. Entomol. 18 (1925), pp. 265-267) as follows:
where X=No. of live nymphs on solvent check leaf discs and Y=No. of live nymphs on treated leaf discs. In Table B3 the “Expected % Control” was calculated using the method described in Colby S. R., Weeds, 1967, 15, 20-22. Bioassay 4: Corn Earworm (Helicoverpa zea, HELIZE, “CEW”), Fall Armyworm (Spodoptera frugiperda, LAPHFR, “FAW”), and Soybean Looper (Chrysodeixis includens, PSEPIN, “SBL”).

[5] = AI alone at 1:1 rate to F1 3.125 (10^-6 Wt %)
[6] = AI alone at 1:1 rate to F1 0.195 (10^-6 Wt %)
[7] = AI alone at 1:1 rate to F1 0.78 (10^-6 Wt %)

Molecule	Average % Control AI ([1]; 0.000004 wt %) [%]	Average % Control AI ([2]; 0.000004 wt %) [%]	Average % Control AI ([3]; 0.000004 wt %) [%]	Average % Control AI ([3]; 0.00004 wt %) [%]	Average % Control AI [4, 5] [%]	Average % Control AI ([1]; 0.00004 wt %) [%]	Average % Control AI [4, 6] [%]	Average % Control AI [4, 7] [%]	Average % Control AI ([4]; AI alone at 1:1 rate to F1 12.5 (10^-6 Wt %)) [%]	Average % Control AI ([4]; AI alone at 1:1 rate to F1 50 (10^-6 Wt %)) [%]	Average % Control AI ([1]; 0.0004 wt %) [%]	Average % Control AI ([2]; 0.00004 wt %) [%]
CC1(C)[C@H](/C=C(\Cl)C(F)(F)F)[C@@H]1C(=O)O[C@@H](C#N)c1cccc(Oc2ccccc2)c1 [Lambda-cyhalothrin]	0.0	12.5	0.0	0.0	–	–	–	–	–	–	–	–
Spinosad	0.0	0.0	12.5	–	57.1	0.0	–	–	–	–	–	–
CC(C(=O)Nc1cn(-c2cccnc2)nc1Cl)S(C)(=O)=O (stereo not shown) [AI-2, N-(3-chloro-1-(pyridin-3-yl)-1H-pyrazol-4-yl)-2-(methylsulfonyl)propanamide]	0.0	0.0	0.0	–	–	0.0	–	–	–	–	–	–
Dinotefuran	0.0	–	–	–	–	0.0	–	–	–	–	–	–
CC(COc1ccc(Oc2ccccc2)cc1)Oc1ccccn1 (stereo not shown) [Pyriproxyfen]	0.0	12.5	12.5	–	–	0.0	–	–	–	–	–	–
Tetraniliprole	0.0	0.0	0.0	50.0	0.0	0.0	0.0	5.7	12.6	0.0	12.5	12.5
O=C(N=c1ccccn1Cc1ccc(Cl)nc1)C(F)(F)F [Flupyrimin]	0.0	0.0	0.0	0.0	–	0.0	4.8	–	–	–	–	0.0
CC(c1ccc(C(F)(F)F)nc1)S(C)(=O)=NC#N (stereo not shown) [Sulfoxaflor]	0.0	12.5	0.0	–	–	0.0	–	–	–	–	–	–
COc1cccc(C(=O)NN(C(=O)c2cc(C)cc(C)c2)C(C)(C)C)c1C [Methoxyfenozide]	0.0	25.0	12.5	0.0	4.8	0.0	–	–	–	–	–	–
CCOC(=O)OC1=C(c2cc(C)ccc2C)C(=O)N[C@]12CC[C@@H](OC)CC2 [Spirotetramat]	0.0	12.5	0.0	–	–	0.0	–	–	–	–	–	–
CNC(=O)c1cc(C#N)cc(C)c1NC(=O)c1cc(Br)nn1-c1ncccc1Cl [Cyantraniliprole]	0.0	0.0	0.0	0.0	–	0.0	–	0.0	–	–	–	0.0
C/C(=N\C#N)N(C)Cc1ccc(Cl)nc1 [Acetamiprid]	0.0	–	–	0.0	–	0.0	–	–	–	–	–	0.0
FC(F)(F)c1ccc(COc2ncncc2C2OCCCO2)cc1 [Benzpyrimoxan]	0.0	0.0	0.0	–	–	0.0	–	–	–	–	–	–
